The values that follow come from patent US6479067B2, “Methods for treating ovarian cancer, poly (phosphoester) compositions, and biodegradable articles for same” (Guilford Pharmaceuticals, Inc., priority 1999, dated 2002).

The conditions of data set [1]: for Paclitaxel Concentration (plasma): 120 mg/kg i.p.
Data set [2] deals with melanoma cell line B16/F10.
Data set [3] can be described thus: Subcutaneous injection: implant site macrophage counts and irritation scores. The class given is in vivo, male S-D rats. The settings on record: s.c.
[4] abbreviates: 28 days, formulation injected on Day 3.
The mark [5] stands for this setting: 28 days, formulation injected on Day 7.
Setting [6] is: 42 days, formulation injected on Day 3.
[7] abbreviates: 42 days, formulation injected on Day 7.
Setting [8] is: 0.7 ml (polymers 89 mg/kg), 7 Day.
[9] abbreviates: 0.7 ml (polymers 89 mg/kg), 14 Day.
Setting [10] is: 0.7 ml (polymers 89 mg/kg), 31 Day.
[11] abbreviates: 2.0 ml (polymers 267 mg/kg), 7 Day.
Where [12] appears, read: 2.0 ml (polymers 267 mg/kg), 14 Day.
Where [13] appears, read: 2.0 ml (polymers 267 mg/kg), 31 Day.

Each structure is given as a SMILES string. Counter-ions that a name gives are not always drawn. Like-named read-outs stand apart in the source and are kept apart here.

In the case of `CC(=O)O[C@H]1C(=O)[C@@]2(C)[C@H]([C@H](OC(=O)c3ccccc3)[C@]3(O)C[C@H](OC(=O)[C@H](O)[C@@H](NC(=O)c4ccccc4)c4ccccc4)C(C)=C1C3(C)C)[C@]1(OC(C)=O)CO[C@@H]1C[C@@H]2O` [Paclitaxel w/o polymer, paclitaxel], the “Paclitaxel Concentration (plasma)” value in data set [1] (14 days) and in data set [1] (28 days) was “Animal died” in each case. Further, the Tolerability result in data set [1] (comparable dose given intraperitoneally) is “could not tolerate the dose”.

`COc1cccc2c1C(=O)c1c(O)c3c(c(O)c1C2=O)C[C@@](O)(C(=O)CO)C[C@@H]3O[C@H]1C[C@H](N)[C@H](O)[C@H](C)O1` [Bolus Dox, doxorubicin hydrochloride]: the “Number of Mice Survived” value in data set [2] (setting [4]) is reported as 8; in data set [2] (setting [5]) it was 8; in data set [2] (setting [6]), 5; in data set [2] (setting [7]), 3. Besides, the “Tumor Volume (mm^3 ± SEM) After Tumor Injection” value in data set [2] (setting [4]) was 1218.9 ± 304.1 mm^3; in data set [2] (setting [5]), 1661.2 ± 301.8 mm^3; in data set [2] (setting [6]), 3942.5 ± 1818 mm^3; in data set [2] (setting [7]), 4394.3 ± 741.3 mm^3. Besides, in data set [2] (about 3-4 days after the injections), the “Early death after injection” value was “did not produce early death”.

For the compound `CC(=O)O` [Acetic Acid], the “# = Mean count (implant site macrophages)” value in data set [3] (setting [8]) is recorded as 208; in data set [3] (setting [9]) it was 166; in data set [3] (setting [10]), 20; in data set [3] (setting [11]), 267; in data set [3] (setting [12]) it was 334; in data set [3] (setting [13]) it was 32. The Irritation result was “Mild (200-400 Mild Irritation)” in data set [3] (setting [8]); “Sl. (0-200 Slight Irritation)” in data set [3] (setting [9]); “Sl. (0-200 Slight Irritation)” in data set [3] (setting [10]); “Mild (200-400 Mild Irritation)” in data set [3] (setting [11]); “Mild (200-400 Mild Irritation)” in data set [3] (setting [12]); “Sl. (0-200 Slight Irritation)” in data set [3] (setting [13]).
